Assay results reported in patent US20050130909A1 (priority 2002, published 2005).
Several values for one entry are separate records, joined by “and”; a condition that tells them apart may be missing. Equal entries are not always repeated. Where two headings read alike, the source gives them in different places.

Assays:
Gram-positive pathogen = assay: Phase II SSTI trial: microbiological response, all Gram-positive pathogens; type: in vivo, human; conditions: for Success rate by pathogen: Total organisms: MITT at FU; for Microbiologic success rate (by patient): MITT population; for Eradication/presumed eradication rate, all organisms: microbiologically-evaluable population at FU
Experimental: (§1) This randomized, controlled study evaluated the safety and efficacy of two dose regimens of dalbavancin.
(§2) There were 62 patients randomized into the study; all received at least one dose of study medication. Four study populations were evaluated for safety and efficacy and were defined as follows: The intent-to-treat (ITT) population included all patients who received at least one dose of study drug (all randomized study subjects).
(§3) Microbiological outcome, a secondary efficacy variable, was assessed in the subpopulation of patients who had microbiologically documented SSTI (i.e., at least one identified baseline pathogen). A microbiologic response was assessed for each Gram-positive pathogen identified at baseline (i.e., eradication, presumed eradication, persistence, presumed persistence). For patients for whom follow-up cultures were not performed, the microbiologic responses for baseline pathogens were presumed on the basis of the clinical response. Microbiologic response by patient at the EOT and FU visits was graded as success (i.e., all Gram-positive organisms eradicated or presumed eradicated) or failure (i.e., at least one Gram-positive organism persisted or presumed to have persisted, multiple pathogens with partial eradication). At both the EOT and FU visits, colonization and superinfection were assessed. At the FU visit, a patient's bacteriological response could also include recurrence.

[1] = test system: Methicillin-sensitive S. aureus; assay: Phase II SSTI trial: microbiological response by pathogen; type: in vivo, human; conditions: MITT at FU
Experimental: as §1, §2, §3

[2] = test system: Miscellaneous streptococcus species; assay: as above; type: in vivo, human; conditions: MITT at FU
Experimental: as §1, §2, §3

S. aureus [3] = assay: as above; type: in vivo, human; conditions: for Success rate by pathogen: All S. aureus: MITT at FU; for S. aureus eradication rate: microbiologically-evaluable population at FU
Experimental: as §1, §2, §3

[4] = Phase II SSTI trial: adverse events (ITT population); type: in vivo, human
Experimental: as §1
Each patient who received at least one dose of study drug (ITT population) was evaluated for drug safety through monitoring of adverse events (AE), including abnormal clinical laboratory test results and vital signs. AE were rated by the investigator as to their severity (mild, moderate, severe, life-threatening), and by the relationship to the study drug (not related, unlikely related, possibly related, or probably related).

[5] = Phase II SSTI trial: dalbavancin plasma concentrations; type: in vivo, human
Group B streptococcus = assay: Dalbavancin MIC of baseline pathogens; type: cell-based; conditions: baseline isolates, MITT
Excerpt: (§4) The most common pathogen was S. aureus.

[6] = test system: Miscellaneous Streptococcus and nontypeable strains; assay: Dalbavancin MIC of baseline pathogens; type: cell-based; conditions: baseline isolates, MITT
Excerpt: as §4

S. aureus [7] = assay: Dalbavancin MIC of baseline pathogens; type: cell-based; conditions: baseline isolates, MITT
Excerpt: as §4

Streptococcus pyogenes = assay: Dalbavancin MIC of baseline pathogens; type: cell-based; conditions: baseline isolates, MITT
Excerpt: as §4

[8] = test system: Gram-positive isolates, including MRSA; assay: Dalbavancin MIC of trial isolates; type: cell-based; conditions: isolates that persisted after treatment
human albumin = human albumin (Homo sapiens, UniProt P02768); assay: Protein binding by isothermal titration microcalorimetry (ITC); conditions: for Calculated percent Binding to Human albumin: albumin 6×10^−4 M assumed
rat albumin = rat albumin (Rattus norvegicus, UniProt P02770); assay: Protein binding by ITC; conditions: pH 7.4
[9] = test system: N,N′-diacetyl-Lys-D-Ala-D-Ala; assay: ITC of binding to tri-peptide cell-wall analog, with and without HSA
Experimental: Peptide concentrations were determined by weight.
Trans. R. Soc. Lond. Ser. A-Math. Phys. Eng. […] Wiley, (1998) p 103-111; and Cooper, A., Curr. Opin. Chem. Biol. (1999) 3, 557-563.

dipeptide (D-Ala-D-Ala) = assay: ITC, preliminary experiments; type: binding; conditions: absence of serum proteins
staphylococci = assay: In vitro antibacterial activity; type: cell-based; conditions: including some teicoplanin-resistant strains
[10] = ESI-MS analysis of multimers in solution
Experimental: Experiments were performed using an Applied Biosystem API III+ mass spectrometer equipped with a TurboIonSpray source, a Triple Quadrupole analyzer, operating in positive ion mode.
The mass spectra were obtained in electrospray positive mode on a Finnigan LCQ^Deca ion trap instrument previously tuned and calibrated in electrospray mode using Ultramark 1621, caffeine and MRFA (L-metionyl-arginyl-phenilalanyl-arginine).

[11] = single-dose dalbavancin (N = 20)

Chain of human albumin (P02768 25-609): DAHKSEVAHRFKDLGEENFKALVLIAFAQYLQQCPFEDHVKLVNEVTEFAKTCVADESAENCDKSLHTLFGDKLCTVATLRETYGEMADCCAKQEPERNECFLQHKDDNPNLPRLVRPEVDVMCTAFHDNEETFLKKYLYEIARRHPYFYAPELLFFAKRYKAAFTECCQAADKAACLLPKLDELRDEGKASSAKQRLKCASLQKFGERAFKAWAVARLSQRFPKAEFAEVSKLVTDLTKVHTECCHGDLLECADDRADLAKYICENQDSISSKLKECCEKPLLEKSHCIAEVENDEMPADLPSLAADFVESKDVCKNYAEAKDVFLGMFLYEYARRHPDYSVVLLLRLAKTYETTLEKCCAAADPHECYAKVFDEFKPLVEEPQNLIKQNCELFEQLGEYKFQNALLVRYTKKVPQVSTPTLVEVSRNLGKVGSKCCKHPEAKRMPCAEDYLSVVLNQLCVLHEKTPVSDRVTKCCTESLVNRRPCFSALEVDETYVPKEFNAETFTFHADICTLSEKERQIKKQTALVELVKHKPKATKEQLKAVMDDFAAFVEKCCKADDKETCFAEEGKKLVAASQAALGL
Chain of rat albumin (P02770 25-608): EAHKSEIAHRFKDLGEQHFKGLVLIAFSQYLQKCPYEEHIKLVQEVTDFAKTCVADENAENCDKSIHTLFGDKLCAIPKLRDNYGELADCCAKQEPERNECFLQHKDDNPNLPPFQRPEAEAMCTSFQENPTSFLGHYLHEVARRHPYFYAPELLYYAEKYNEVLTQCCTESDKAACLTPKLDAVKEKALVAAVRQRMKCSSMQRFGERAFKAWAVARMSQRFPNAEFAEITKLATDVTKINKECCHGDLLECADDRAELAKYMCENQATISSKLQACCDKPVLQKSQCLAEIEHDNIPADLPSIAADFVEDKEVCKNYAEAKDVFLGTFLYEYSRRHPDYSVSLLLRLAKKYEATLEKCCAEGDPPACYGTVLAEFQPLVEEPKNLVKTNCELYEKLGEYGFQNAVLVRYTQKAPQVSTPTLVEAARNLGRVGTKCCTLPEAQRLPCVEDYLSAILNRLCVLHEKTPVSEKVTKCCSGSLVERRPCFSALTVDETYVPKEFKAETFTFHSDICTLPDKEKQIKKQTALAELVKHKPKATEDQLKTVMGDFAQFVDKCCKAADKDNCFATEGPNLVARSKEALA

## CN[C@H]1C(=O)N[C@@H]2Cc3ccc(cc3)Oc3cc4cc(c3O[C@@H]3O[C@H](C(=O)O)[C@@H](O)[C@H](O)[C@H]3NC(=O)CCCCCCCCC(C)C)Oc3ccc(cc3Cl)[C@@H](O)[C@@H]3NC(=O)[C@H](NC(=O)[C@@H]4NC(=O)[C@@H](NC2=O)c2cc(cc(O)c2Cl)Oc2cc1ccc2O)c1ccc(O)c(c1)-c1c(O[C@H]2O[C@H](CO)[C@@H](O)[C@H](O)[C@@H]2O)cc(O)cc1[C@@H](C(=O)NCCCN(C)C)NC3=O [Dalbavancin]
Gram-positive pathogen; single-dose 1100 mg
  Success rate by pathogen: Total organisms: 7/16 (43.8%)
Gram-positive pathogen; two-dose 1000/500 mg
  Success rate by pathogen: Total organisms: 14/16 (87.5%)
Gram-positive pathogen; EOT, single-dose 1100 mg
  Microbiologic success rate (by patient): 5/14 (35.7) %
Gram-positive pathogen; EOT, two-dose 1000/500 mg
  Microbiologic success rate (by patient): 10/13 (76.9) %
Gram-positive pathogen; FU, single-dose 1100 mg
  Microbiologic success rate (by patient): 3/14 (21.4) %
Gram-positive pathogen; FU, two-dose 1000/500 mg
  Microbiologic success rate (by patient): 9/13 (69.2) %
Gram-positive pathogen; microbiologically-evaluable and MITT populations, single dose of dalbavancin
  Microbiologic success rates, summary over both visits (EOT, FU): < 40%
Gram-positive pathogen; single-dose dalbavancin
  Eradication/presumed eradication rate, all organisms: 58.3% and 58%
Gram-positive pathogen; two-dose dalbavancin
  Eradication/presumed eradication rate, all organisms: 92.3% and 92%
[1]; single-dose 1100 mg
  Success rate by pathogen: Methicillin-sensitive: 2/7 (29%)
[1]; two-dose 1000/500 mg
  Success rate by pathogen: Methicillin-sensitive: 5/6 (83%)
[2]; single-dose 1100 mg
  Success rate by pathogen: Miscellaneous streptococcus species: 2/3 (67%)
[2]; two-dose 1000/500 mg
  Success rate by pathogen: Miscellaneous streptococcus species: 4/4 (100%)
S. aureus [3]; single-dose 1100 mg
  Success rate by pathogen: All S. aureus: 5/13 (38%)
S. aureus [3]; two-dose 1000/500 mg
  Success rate by pathogen: All S. aureus: 9/11 (82%)
S. aureus [3]; single-dose dalbavancin
  S. aureus eradication rate: 50%
S. aureus [3]; two-dose dalbavancin
  S. aureus eradication rate: 90%
[4]; Phase II trial
  Hepatotoxicity or nephrotoxicity: no evidence that dalbavancin induces any degree of clinically significant hepatotoxicity or nephrotoxicity
[4]; Phase II trial, both dalbavancin regimens
  Serious adverse events related to study drug: no serious adverse events related to study drug treatment
[4]; Phase II trial, both doses
  Tolerability: well tolerated
[4]; [11]
  AE leading to discontinuation of study medication: 0
  Patients with ≧1 AE: 95%
  ≧1 AE possibly/probably related to treatment: 55%
[4]; single-dose dalbavancin (N = 20), listed as dalbavancin
  ≧1 AE possibly/probably related to treatment: 55%
[4]; two-dose dalbavancin (N = 21)
  AE leading to discontinuation of study medication: 0
  Adverse event: Constipation: 4.8%
  Patients with ≧1 AE: 76.2%
  ≧1 AE possibly/probably related to treatment: 48%
[4]; two-dose dalbavancin (N = 21), listed as dalbavancin
  ≧1 AE possibly/probably related to treatment: 48%
[5]; additional week, with an additional dose of 500 mg IV on day 8
  Dalbavancin plasma level maintained: greater than 20 mg/l
[5]; single-dose regimen 1100 mg IV, Study day 8
  Mean dalbavancin plasma concentration (mean±SD): 31.1 ± 7.1 mg/L
[5]; single-dose regimen, Study day 10
  Mean dalbavancin plasma concentration (mean±SD): 25.2 ± 4.8 mg/L
[5]; single-dose regimen, Study day 24
  Mean dalbavancin plasma concentration (mean±SD): 10.2 ± 3.5 mg/L
[5]; through the first week following the first dose
  Dalbavancin plasma concentration, all patients: greater than 20 mg/l
[5]; two-dose regimen 1000/500 mg IV, Study day 8 (prior to the second dose)
  Mean dalbavancin plasma concentration (mean±SD): 30.4 ± 8.2 mg/L
[5]; two-dose regimen, Study day 20
  Mean dalbavancin plasma concentration (mean±SD): 21.2 ± 10.0 mg/L
[5]; two-dose regimen, Study day 34
  Mean dalbavancin plasma concentration (mean±SD): 9.0 ± 4.4 mg/L
Group B streptococcus; standard of care arm
  Dalbavancin MIC: 2 (0.016) mg/L
Group B streptococcus; two-dose arm
  Dalbavancin MIC: 2 (0.016) mg/L
[6]; single-dose arm
  Dalbavancin MIC: 3 (0.016) mg/L
[6]; standard of care arm
  Dalbavancin MIC: 4 (0.016) mg/L
[6]; two-dose arm
  Dalbavancin MIC: 2 (0.016) mg/L
S. aureus [7]; single-dose arm (N = 14)
  Dalbavancin MIC: 13 (0.12) mg/L
S. aureus [7]; standard of care arm (N = 14)
  Dalbavancin MIC range: 10 (0.016-0.25) mg/L
S. aureus [7]; two-dose arm (N = 13)
  Dalbavancin MIC: 11 (0.12) mg/L
Streptococcus pyogenes; standard of care arm
  Dalbavancin MIC: 1 (0.016) mg/L
Streptococcus pyogenes; two-dose arm
  Dalbavancin MIC: 1 (0.016) mg/L
[8]
  Change in dalbavancin MIC of isolates that persisted: no change in dalbavancin MIC
Human albumin; 37° C., pH 7.4
  Apparent binding affinity Ka: 1.33 (±0.15) ×10^5 M^−1
Human albumin; ITC fit, in all cases (all proteins tested), FIG. 2
  Binding stoichiometry N (protein to dalbavancin): < 1
Human albumin; across 1-500 μM dalbavancin
  Binding to human serum albumin: exceeds 98%
Human albumin; antibiotic 1 μM
  Calculated percent Binding to Human albumin: 98.8%
Human albumin; antibiotic 10 μM
  Calculated percent Binding to Human albumin: 98.8%
Human albumin; antibiotic 100 μM
  Calculated percent Binding to Human albumin: 98.7%
Human albumin; antibiotic 165 μM
  Calculated percent Binding to Human albumin: 98.6%
Human albumin; antibiotic 250 μM
  Calculated percent Binding to Human albumin: 98.5%
Human albumin; antibiotic 500 μM
  Calculated percent Binding to Human albumin: 98.0%
Human albumin; binding stoichiometry modeling of ITC data
  Binding stoichiometry antibiotic:protein: two dalbavancin molecules are bound to one molecule of protein
Human albumin; human
  Free fraction: ~1%
Rat albumin; 25° C.
  Apparent binding affinity Ka: 3.1 (±0.5) ×10^5 M^−1
Rat albumin; 37° C.
  Apparent binding affinity Ka: 2.8 (±1.8) ×10^5 M^−1
[9]; 10 ° C., [HSA] 0 μM
  Kass: 920000 M⁻¹ and 685000 M⁻¹ and 624000 M⁻¹ and 670000 M⁻¹
[9]; 10 ° C., [HSA] 0 μM, read-out: Kdiss
  Kd: 1.09 µM and 1.6 µM and 1.49 µM
[9]; 10° C., absence of HSA, read-out: Average Kdiss
  Kd: ~1.4 µM
[9]; 25° C.
  Weakening of binding affinity at HSA plateau relative to absence of HSA: 10-12 ×
[9]; 25 ° C., [HSA] 0 μM
  Kass: 313000 M⁻¹ and 330000 M⁻¹ and 320000 M⁻¹ and 280000 M⁻¹ and 303000 M⁻¹ and 319000 M⁻¹ and 393000 M⁻¹
[9]; 25 ° C., [HSA] 0 μM, read-out: Kdiss
  Kd: 3.57 µM and 3.3 µM and 2.54 µM
[9]; 25° C., absence of HSA (free dalbavancin), read-out: Average Kdiss
  Kd: ~3.1 µM
[9]; 25 ° C., with HSA 34.2 μM
  Kass: 35000 M⁻¹
[9]; 25 ° C., with HSA 34.2 μM, read-out: Kdiss
  Kd: 28.6 µM
[9]; 37° C., absence of HSA, read-out: Average Kdiss
  Kd: ~8.4 µM
[9]; aqueous buffer pH 7.4 containing HSA
  Effect of HSA on solubility of dalbavancin: HSA increased the solubility of dalbavancin
[9]; read-out: Apparent Kdiss, plateau level at high concentrations of HSA (dalbavancin bound to HSA), 25° C., HSA above 35 μM up to 600 μM, FIG. 11
  Kd: ~35 µM
Dipeptide (D-Ala-D-Ala)
  Binding to dipeptide (D-Ala-D-Ala): no evidence of binding
staphylococci
  In vitro activity relative to teicoplanin and vancomycin: more active in vitro against staphylococci (including some teicoplanin-resistant strains) than teicoplanin and vancomycin
[10]; 100 μg/mL, ammonium formate 5, 50, 100 mM pH 5, FIGS. 6-8
  Population ratio of multimer to monomer: influence of ionic strength: decrease in dalbavancin multimer to monomer population ratio
[10]; 20, 40, 60, and 80 μg/mL, FIG. 4
  Population ratio of multimer to monomer: influence of concentration: increases with increasing concentration
[10]; dalbavancin 0.1 mg/ml in 8:2 water:isopropanol, teicoplanin 50 and 100 μg/mL in water
  Multimers in solution: indicates the presence of dalbavancin multimers
[10]; pH 2.5 to 5.5, FIG. 5
  Population ratio of multimer to monomer: influence of pH: increases with increasing pH
